# Experimental data reported in US20110275637A1, “PIPERAZINE DERIVATIVES AND THEIR USE AS LEPTIN RECEPTOR MODULATORS” (priority 2008, published 2011).
# Key:
# JEG-3 cells [1] = settings: Biol. Reprod. (2007) 76: 203-10; cited from earlier work
# JEG-3 cells [2] = assay: JEG-3 protocol: [3H]-thymidine incorporation / proliferation (leptin assay in non-recombinant system); assay type: cell-based; settings: FIG. 6
# Description: Leptin Assay in Non-Recombinant System
# It seems that overexpression of the receptor (as well as the possibility for different drugs to act on different parts of the signaling pathway triggered by leptin association with its receptor) results in most cases in the absence of activity of the drugs tested.
# The leptin receptor expression in non-recombinant system is often fluctuating and care must be given to identify a system where signal stability remains within experiments. Using such a system, leptin receptor antagonist mimetics could be identified by evaluating is their action vs. leptin (see below).
# Leptin is produced chiefly in adipose cells, but in humans, mRNA encoding leptin is also present in the placenta. Here, leptin might play an important proliferative role in the microvasculature. The possibility to use this hypothesis in a native cell line was evaluated.
# In JEG-3 cells (choriocarcinoma cell line) leptin is able to stimulate proliferation up to 3 fold (Biol. Reprod. (2007) 76: 203-10). […] The radioactivity incorporated by the cells is an index of their proliferative activity and is measured in counts per minute (CPM) with a liquid scintillation beta counter. […]
substance,measurement,setting,value
Leptin: a hormone synthesized in fat cells that is believed to act in the hypothalamus to reduce food intake and body weight,stimulation of proliferation,JEG-3 cells [1],up to 3 fold
same,EC50,"JEG-3 cells [2]; JEG-3 cells (choriocarcinoma cell line), read-out: EC50, concentration-dependent increase in [3H]-thymidine incorporation",2.1 nM
same,concentration of maximal effect on [3H]-thymidine incorporation,JEG-3 cells [2]; JEG-3 cells,100 nM
